The values below come from patent publication US20260055108A1, “TRIAZINE COMPOUNDS AND USES THEREOF” (HUTCHMED LIMITED, priority 2022, published 2026).

The target in experiment [1] is Recombinant human Menin protein (2-610) / MLL polypeptide binding (Homo sapiens (Human), UniProt O00255). The experiment in a line: Menin and MLL protein binding at a molecular level (fluorescence polarization method). Particulars: inhibition of Menin / MLL polypeptide binding. In a few lines: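 Binding of recombinant human Menin (2-610) to 6-FAM-labelled MLL peptide measured by fluorescence polarization (ex 480/em 535 nm) in Tris/NaCl/TCEP buffer, pH 7.5, 2% DMSO. Compound preincubated with Menin 30 min at room temperature, then peptide added for 30 min in the dark. Tested at 1.000 down to 0.0005 μM final.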
(Polarisation of emitted light reports the rotation of a fluorescent probe.)

The subject of experiment [2] is MV-4-11 cells (human acute myelogenous leukemia cell line carrying MLL-AF4 mutation). The experiment in a line: Cell proliferation assay, MV-4-11 (CellTiter-Glo). The class given is cell-based. The settings on record: Homo sapiens, MV4-11, 72 h, MV-4-11 cells, 3 days treatment, CellTiter-Glo; read-out: GI50. In a few lines:
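MV-4-11 cells (3000/well, IMDM with 10% HIFBS and 50 μM β-mercaptoethanol) exposed to compound at 1.100–0.001 μM final, 0.1% DMSO, for 3 days at 37°C. Viability read by CellTiter-Glo luminescence on day 0 and day 3, normalised to day-0 and untreated wells.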
(In ATP-based viability assays light output follows the ATP content of the culture.)

Recombinant human Menin protein (2-610) / MLL polypeptide binding, sequence (O00255 2-610): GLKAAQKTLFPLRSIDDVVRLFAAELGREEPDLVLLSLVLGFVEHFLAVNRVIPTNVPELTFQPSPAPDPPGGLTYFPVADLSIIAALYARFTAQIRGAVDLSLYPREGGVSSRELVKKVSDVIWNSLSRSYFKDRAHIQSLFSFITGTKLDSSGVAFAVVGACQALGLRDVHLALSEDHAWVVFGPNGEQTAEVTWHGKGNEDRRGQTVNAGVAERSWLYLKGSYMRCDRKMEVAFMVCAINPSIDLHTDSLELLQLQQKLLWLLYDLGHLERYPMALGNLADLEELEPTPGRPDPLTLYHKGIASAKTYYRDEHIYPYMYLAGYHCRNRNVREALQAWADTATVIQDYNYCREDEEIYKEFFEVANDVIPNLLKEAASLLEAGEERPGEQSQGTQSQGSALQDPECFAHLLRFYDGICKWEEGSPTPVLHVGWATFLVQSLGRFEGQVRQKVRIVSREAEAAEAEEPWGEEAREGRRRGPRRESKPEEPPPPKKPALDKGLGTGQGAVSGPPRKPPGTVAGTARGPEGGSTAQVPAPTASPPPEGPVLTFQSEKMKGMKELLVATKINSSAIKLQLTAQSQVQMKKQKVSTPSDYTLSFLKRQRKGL

Turning to `CCN(C(=O)c1cc(F)ccc1Oc1nncnc1N1CC2(CCN(CC3CCN(c4cc(OC)cnn4)CC3)CC2)C1)C(C)C` [Compound 89], the half-maximal inhibitory concentration (IC50) in experiment [1] turned out to be 2.8 nM. In addition, the 50% growth inhibitory concentration (GI50) in experiment [2] was 4 nM.
With `CCN(C(=O)c1cc(F)ccc1Oc1nncnc1N1CC2(CCN(CC3CCN(c4cc(OC)c(OC)nn4)CC3)CC2)C1)C(C)C` [Compound 90], the concentration for half-maximal inhibition (IC50) in experiment [1] came to 2.1 nM. Further, in experiment [2], the GI50 was 2 nM.
As to `CC(C)n1nccc1-c1cc(F)ccc1Oc1nncnc1N1CC2(CCN(CC3CCN(c4ccc(C(F)(F)F)nn4)CC3)CC2)C1` [Compound 91], in experiment [1], the IC50 stood at 3.1 nM. For the same molecule, the GI50 in experiment [2] stood at 13 nM.
The corresponding values for `COc1cc(N2CCC(CN3CCC4(CC3)CN(c3ncnnc3Oc3ccc(F)cc3-c3ccnn3C)C4)CC2)nnc1OC` [Compound 92] are 10.9 nM and 22 nM.
The corresponding values for `CCN(C(=O)c1cc(F)ccc1Oc1nncnc1N1CC2(CCN(CC3CCN(c4cc(OC)c(OC)nn4)CC3)C2)C1)C(C)C` [Compound 93] are 0.6 nM and 2 nM.
Turning to `CCN(C(=O)c1cc(F)ccc1Oc1nncnc1N1CCC2(CN(CC3CCN(c4cc(OC)c(OC)nn4)CC3)C2)C1)C(C)C` [Compound 94], the IC50 in experiment [1] turned out to be 0.8 nM. Besides, in experiment [2], the GI50 was 2 nM.
Consider `CCOc1cc(N2CCC(CN3CCC4(CC3)CN(c3ncnnc3Oc3ccc(F)cc3C(=O)N(CC)C(C)C)C4)CC2)nnc1OCC` [Compound 95], for which, in experiment [1], the concentration for half-maximal inhibition (IC50) turned out to be 3.2 nM. The concentration for 50% growth inhibition (GI50) in experiment [2] was 9 nM.
For the molecule `CCN(C(=O)c1cc(F)ccc1Oc1nncnc1N1CC2(CCN(CC3CCN(c4nnc(OC)cc4OC)CC3)CC2)C1)C(C)C` [Compound 96], in experiment [1], the 50% inhibitory concentration (IC50) was 30 nM. Also, the GI50 in experiment [2] was 59 nM.
In the same order, the values of `CCN(C(=O)c1cc(F)ccc1Oc1nncnc1N1CC2(CCN(CC3CCN(c4cc(C)c(OC)nn4)CC3)CC2)C1)C(C)C` [Compound 97] are 0.9 nM and 1 nM.
In the same order, the values of `CCN(C(=O)c1cc(F)ccc1Oc1nncnc1N1CC2(CCN(CC3CCN(c4nnc(OC)cc4C)CC3)CC2)C1)C(C)C` [Compound 98] are 7.1 nM and 12 nM.
The corresponding values for `COc1cc(N2CCC(CN3CCC4(CC3)CN(c3ncnnc3Oc3ccc(F)cc3C(=O)N3CCCC3)C4)CC2)nnc1OC` [Compound 99] are 14.7 nM and 26 nM.
In the case of `COc1cc(N2CCC(CN3CCC4(CC3)CN(c3ncnnc3Oc3ccc(F)cc3C(=O)N3CCC[C@H]3C)C4)CC2)nnc1OC` [Compound 100], the IC50 in experiment [1] amounted to 1.9 nM. Besides, in experiment [2], the GI50 amounted to 9 nM.
In the same order, the values of `COc1cc(N2CCC(CN3CCC4(CC3)CN(c3ncnnc3Oc3ccc(F)cc3-c3ccnn3C(C)C)C4)CC2)nnc1OC` [Compound 101] are 0.9 nM and 2 nM.
For `COc1cc(N2CCC(CN3CCC4(CC3)CN(c3ncnnc3Oc3ccc(F)cc3)C4)CC2)nnc1OC` [Compound 102], in experiment [1], the half-maximal inhibitory concentration (IC50) is 15.9 nM. Also, the GI50 in experiment [2] is 28 nM.
In the same order, the values of `COc1cc(N2CCC(CN3CCC4(CC3)CN(c3ncnnc3Oc3ccc(Cl)cc3)C4)CC2)nnc1OC` [Compound 103] are 114 nM and 107 nM.
In the same order, the values of `COc1cc(N2CCC(CN3CCC4(CC3)CN(c3ncnnc3Oc3ccc(F)c5c3cnn5C(C)C)C4)CC2)nnc1OC` [Compound 104] are greater than 1000 nM and greater than 3300 nM.
In the same order, the values of `COc1cc(N2CCC(CN3CCC4(CC3)CN(c3ncnnc3Oc3ccc(F)cc3C(=O)OC(C)C)C4)CC2)nnc1OC` [Compound 106] are 0.9 nM and 7 nM.
As for `CCN(C(=S)c1cc(F)ccc1Oc1nncnc1N1CC2(CCN(CC3CCN(c4cc(OC)c(OC)nn4)CC3)CC2)C1)C(C)C` [Compound 107], the concentration for half-maximal inhibition (IC50) in experiment [1] is 3.3 nM. For the same molecule, in experiment [2], the GI50 was determined as 9 nM.
The corresponding values for `CCN(C(=O)c1cc(F)ccc1Oc1nncnc1N1CC2(CCN(CC3CCN(c4cc5c(nn4)OCCO5)CC3)CC2)C1)C(C)C` [Compound 108] are 21.6 nM and 60 nM.
Regarding `CCN(C(=O)c1cc(F)ccc1Oc1nncnc1N1CC2(CCN(CC3CCN(c4cnnc(OC)c4)CC3)CC2)C1)C(C)C` [Compound 109], the IC50 in experiment [1] worked out at 7.4 nM. Further, the concentration for 50% growth inhibition (GI50) in experiment [2] amounted to 6 nM.
As to `CCN(C(=O)c1cc(F)ccc1Oc1nncnc1N1CC2(CCN(CC3CCN(c4cc(OC)c(OC)cn4)CC3)CC2)C1)C(C)C` [Compound 110], the 50% inhibitory concentration (IC50) in experiment [1] amounted to 0.7 nM. In addition, the GI50 in experiment [2] was 3 nM.
Regarding `CCN(C(=O)c1cc(F)ccc1Oc1nncnc1N1CC2(CCN(CC3CCN(c4cnc(OC)c(OC)c4)CC3)CC2)C1)C(C)C` [Compound 111], the IC50 in experiment [1] was 5.2 nM. Further, in experiment [2], the GI50 was 8 nM.
Regarding `CCN(C(=O)c1cc(F)ccc1Oc1nncnc1N1CC2(CCN(CC3CCN(c4ccc(OC)cn4)CC3)CC2)C1)C(C)C` [Compound 112], in experiment [1], the 50% inhibitory concentration (IC50) turned out to be 5.9 nM. Moreover, the GI50 in experiment [2] stood at 5 nM.
`CCN(C(=O)c1cc(F)ccc1Oc1nncnc1N1CC2(CCN(CC3CCN(c4cc(OC)ccn4)CC3)CC2)C1)C(C)C` [Compound 113]: the IC50 in experiment [1] turned out to be 1.9 nM. Besides, the GI50 in experiment [2] was found to be 4 nM.
In the same order, the values of `CCN(C(=O)c1cc(F)ccc1Oc1nncnc1N1CC2(CCN(CC3CCN(c4ccnc(OC)c4)CC3)CC2)C1)C(C)C` [Compound 114] are 2.3 nM and 3 nM.
Consider `CCN(C(=O)c1cc(F)ccc1Oc1nncnc1N1CC2(CCN(CC3CCN(c4ccc(C#N)nc4)CC3)CC2)C1)C(C)C` [Compound 115], for which, in experiment [1], the IC50 was 4.7 nM. For the same molecule, the GI50 in experiment [2] turned out to be 6 nM.
The corresponding values for `CCN(C(=O)c1cc(F)ccc1Oc1nncnc1N1CC2(CCN(CC3CCN(c4ccc(C#N)cn4)CC3)CC2)C1)C1CC1` [Compound 116] are 53.5 nM and 70 nM.
The corresponding values for `N#Cc1ccc(N2CCC(CN3CCC4(CC3)CN(c3ncnnc3Oc3ccc(F)cc3C3=CCOCC3)C4)CC2)nc1` [Compound 117] are 175 nM and 255 nM.
The corresponding values for `Cc1nc(-c2cc(F)ccc2Oc2nncnc2N2CC3(CCN(CC4CCN(c5ccc(C#N)cn5)CC4)CC3)C2)n(C(C)C)n1` [Compound 118] are greater than 1000 nM and greater than 3300 nM.
`CCN(C(=O)c1cc(F)ccc1Oc1nncnc1N1CC2(CCN(CC3CCN(c4cccc(C(N)=O)n4)CC3)CC2)C1)C(C)C` [Compound 119]: the 50% inhibitory concentration (IC50) in experiment [1] was 2.3 nM. The concentration for 50% growth inhibition (GI50) in experiment [2] came to 3 nM.
The corresponding values for `CCN(C(=O)c1cc(F)ccc1Oc1nncnc1N1CC2(CCN(CC3CCN(c4ccnc(C(C)(C)O)c4)CC3)CC2)C1)C(C)C` [Compound 120] are 15.2 nM and 36 nM.
The corresponding values for `CCN(C(=O)c1cc(F)ccc1Oc1nncnc1N1CC2(CCN(CC3CCN(c4cccc(C(C)(C)O)n4)CC3)CC2)C1)C(C)C` [Compound 121] are 1.5 nM and 3 nM.
`CCN(C(=O)c1cc(F)ccc1Oc1nncnc1N1CC2(CCN(CC3CCC(n4ccccc4=O)CC3)CC2)C1)C(C)C` (stereo not drawn) [Compound 122]: the IC50 in experiment [1] was greater than 200 nM. In addition, in experiment [2], the GI50 is 119 nM.
Regarding `CCN(C(=O)c1cc(F)ccc1Oc1nncnc1N1CC2(CCN(CC3CC=C(c4ccccn4)CC3)CC2)C1)C(C)C` (stereo not drawn) [Compound 123], the half-maximal inhibitory concentration (IC50) in experiment [1] stood at 133 nM. In addition, the GI50 in experiment [2] amounted to 39 nM.
The corresponding values for `CCN(C(=O)c1cc(F)ccc1Oc1nncnc1N1CC2(CCN(Cc3ccc(-c4ccccn4)cc3)CC2)C1)C(C)C` [Compound 124] are greater than 200 nM and 505 nM.
As to `CCN(C(=O)c1cc(F)ccc1Oc1nncnc1N1CC2(CCN(CC3CCC(O)(c4ccccn4)CC3)CC2)C1)C(C)C` (stereo not drawn) [Compound 125], in experiment [1], the 50% inhibitory concentration (IC50) was greater than 200 nM. Besides, the GI50 in experiment [2] is 585 nM.
Turning to `CCN(C(=O)c1cc(F)ccc1Oc1nncnc1N1CC2(CCN(CC3CCN(c4ccc(C#N)cn4)CC3(C)C)CC2)C1)C(C)C` (stereo not drawn) [Compound 126], the IC50 in experiment [1] was 14.6 nM. The concentration for 50% growth inhibition (GI50) in experiment [2] was 27 nM.
In the same order, the values of `CCN(C(=O)c1cc(F)ccc1Oc1nncnc1N1CC(C2(NCc3ccc4[nH]c(C#N)cc4c3C)CC2)C1)C(C)C` [Compound 127] are 24.3 nM and 242 nM.
In the same order, the values of `CCN(C(=O)c1cc(F)ccc1Oc1nncnc1N1CCC(C2(NCc3ccc4[nH]c(C#N)cc4c3C)CC2)C1)C(C)C` (stereo not drawn) [Compound 128] are 5.1 nM and 70 nM.
The corresponding values for `CCN(C(=O)c1cc(F)ccc1Oc1nncnc1N1CC(C2CCCN2Cc2ccc3[nH]c(C#N)cc3c2C)C1)C(C)C` (stereo not drawn) [Compound 129] are 178 nM and 199 nM.
As for `CCN(C(=O)c1cc(F)ccc1Oc1nncnc1N1CC2(CCN(Cc3ccc4c(cc(C#N)n4C4COC4)c3C)CC2)C1)C(C)C` [Compound 130], the IC50 in experiment [1] came to 2.7 nM. Also, in experiment [2], the GI50 was 9 nM.
In the same order, the values of `CCN(C(=O)c1cc(F)ccc1Oc1nncnc1N1CC2(CCN(Cc3ccc4[nH]c(C#N)c(C5=CCOCC5)c4c3C)CC2)C1)C(C)C` [Compound 131, 2-((5-(7-((2-cyano-3-(3,6-dihydro-2H-pyran-4-yl)-4-methyl-1H-indol-5-yl)methyl)-2,7-diazaspiro[3.5]nonan-2-yl)-1,2,4-triazin-6-yl)oxy)-N-ethyl-5-fluoro-N-isopropylbenzamide] are 18 nM and 18 nM.

The term IC50 denotes the concentration that gives 50% inhibition. For orientation: GI50 means the concentration that inhibits growth by half.
